According to patent publication US8524755B2 (priority 2009, dated 2013):

Assays:
[1] = biological target: T1, Vasopressin V1a (h) (Homo sapiens, UniProt P37288); test: Binding V1a (h) (ag); settings: read-out: % Inhibition of Control Specific Binding @ 10 μM
T1 construct: expressed in transfected cells; host or cells: CHO cells
Procedure: (§1) Radioligand binding assay methods utilized to measure the activity of compounds of the invention will be familiar to those skilled in the art. In each assay case, the assay components such as, for example, the cell-type, ligand, reference compound and the like, will be familiar to practitioners of such an assay.
(§2) Analysis and Expression of Results: Compounds of the invention were tested in the biochemical assays and percent inhibition of specific binding was determined. The specific ligand binding to the receptors is defined as the difference between the total binding and the nonspecific binding determined in the presence of an excess of unlabelled ligand. The results are expressed as a percent inhibition of control specific binding (100−((measured specific binding/control specific binding)×100)) obtained in the presence of test compounds.

[2] = test system: GABA transporter; test: Binding GABA transporter (aa); design: species or system rat
Procedure: as §1, §2

[3] = test system: SKCa channel; test: Binding SKCa channel (aa); design: species or system rat
Procedure: as §1, §2

[4] = biological target: T2, GABA transaminase (Rattus norvegicus, UniProt P50554); test: Enzyme assay GABA transaminase; format: biochemical; settings: read-out: % Inhibition of Control Values @ 10 μM
T2 construct: rat brain; from tissue; host or cells: rat brain
Excerpt: The enzyme assays provided below will be familiar to those skilled in the art.
Analysis and Expression of Results: The results are expressed as a percent of control specific activity ((measured specific activity/control specific activity)×100) obtained in the presence of the test compounds.

[5] = biological target: T3, Adenosine A3 (h) (Homo sapiens, UniProt P0DMS8); test: Binding A3 (h) (ag); settings: read-out: % Inhibition of Control Specific Binding @ 10 μM
T3 construct: expressed in transfected cells; host or cells: HEK-293 cells
T3 sequence (P0DMS8 1-318): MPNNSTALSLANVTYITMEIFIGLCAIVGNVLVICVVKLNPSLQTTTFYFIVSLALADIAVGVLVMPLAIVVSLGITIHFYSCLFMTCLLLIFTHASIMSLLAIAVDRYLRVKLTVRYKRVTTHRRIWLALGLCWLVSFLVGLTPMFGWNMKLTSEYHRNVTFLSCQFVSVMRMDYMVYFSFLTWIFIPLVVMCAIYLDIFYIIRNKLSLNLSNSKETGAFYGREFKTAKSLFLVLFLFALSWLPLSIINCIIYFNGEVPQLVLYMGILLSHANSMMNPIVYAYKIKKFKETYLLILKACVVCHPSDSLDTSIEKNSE
Procedure: as §1, §2

[6] = biological target: T4, Adenosine A1 (h) (Homo sapiens, UniProt P30542); test: Binding A1 (h) (aa); settings: read-out: % Inhibition of Control Specific Binding @ 10 μM
T4 construct: expressed in transfected cells; host or cells: CHO cells
T4 sequence (P30542 1-326): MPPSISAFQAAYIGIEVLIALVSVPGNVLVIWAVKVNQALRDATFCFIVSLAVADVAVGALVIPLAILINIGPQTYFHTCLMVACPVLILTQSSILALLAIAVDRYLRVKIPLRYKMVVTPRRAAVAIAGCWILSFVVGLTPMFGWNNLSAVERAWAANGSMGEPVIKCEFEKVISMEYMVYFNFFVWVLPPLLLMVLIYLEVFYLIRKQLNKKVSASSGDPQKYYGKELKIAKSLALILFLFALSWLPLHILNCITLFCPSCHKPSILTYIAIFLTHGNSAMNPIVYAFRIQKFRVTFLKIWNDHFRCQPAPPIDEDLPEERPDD
Procedure: as §1, §2

[7] = test system: I2; test: Binding I2 (aa); design: species or system rat
Procedure: as §1, §2

[8] = [14C]RD162′ radio-HPLC metabolite profile in Pooled Rat Plasma; format: in vivo, Sprague Dawley rats; settings: [14C]RD162′ 100 mg/kg/day oral, day 7, 4 h
Procedure: The rats were dosed once a day for seven consecutive days; four hours after dosing on the seventh day, plasma was collected from all three rats. The plasma samples were stored at approximately −70° C. or colder.
Positive ion electrospray LC/MS and LC/MS/MS were used to analyze the metabolites.
To prepare the Pooled Rat Plasma for HPLC analysis, approximately 1 g of the plasma sample was combined with acetonitrile (ACN, sample:ACN, 1:3, v:v), vortex mixed, sonicated in cold water, centrifuged, and the supernatants were removed. The extraction was repeated twice and the respective supernatants were combined. […] The combined supernatants were evaporated to dryness and reconstituted in 1 mL of 0.1% formic acid in reverse osmosis (RO) water:ACN: methanol (MeOH, 50:45:5, v:v:v). […] The reconstituted sample was analyzed by HPLC to determine the metabolite profile with fractions collected at 10-second intervals and analyzed by solid scintillation counting.
The prepared samples were analyzed using the following LC/MS/MS conditions: HPLC: Hewlett Packard 1100 series; Mobile Phase: 0.1% formic acid in reverse osmosis water (A) and acetonitrile (B); Column: Agilent Eclipse XDB-C18, 4.6×150 mm, 5 μm; Guard column: Phenomenex Security Guard Cartridge C18, 3×4 mm; Column temperature: 20° C.; Gradient: 20-80% B in 40 min; Flow Rate: 1.5 mL/min.

[9] = test system: kainate; test: Binding kainate (ag); design: species or system rat
Procedure: as §1, §2

[10] = test system: Benzodiazepine BZD (central); test: Binding BZD (central) (ag); design: species or system rat
Procedure: as §1, §2

[11] = biological target: T5, 5-HT transporter (h) (Homo sapiens, UniProt P31645); test: Binding 5-HT transporter (h) (aa); settings: read-out: % Inhibition of Control Specific Binding @ 10 μM
T5 construct: expressed in transfected cells; host or cells: CHO cells
Procedure: as §1, §2

[12] = biological target: T6, Somatostatin sst5 (h) (Homo sapiens, UniProt P35346); test: Binding sst5 (h) (ag); settings: read-out: % Inhibition of Control Specific Binding @ 10 μM
T6 construct: expressed in transfected cells; host or cells: CHO cells
Procedure: as §1, §2

[13] = biological target: T7, Corticotropin Releasing Factor CRF1 (h) (Homo sapiens, UniProt P34998); test: Binding CRF1 (h) (ag); settings: read-out: % Inhibition of Control Specific Binding @ 10 μM
T7 construct: expressed in transfected cells; host or cells: CHO cells
T7 sequence (P34998 24-415): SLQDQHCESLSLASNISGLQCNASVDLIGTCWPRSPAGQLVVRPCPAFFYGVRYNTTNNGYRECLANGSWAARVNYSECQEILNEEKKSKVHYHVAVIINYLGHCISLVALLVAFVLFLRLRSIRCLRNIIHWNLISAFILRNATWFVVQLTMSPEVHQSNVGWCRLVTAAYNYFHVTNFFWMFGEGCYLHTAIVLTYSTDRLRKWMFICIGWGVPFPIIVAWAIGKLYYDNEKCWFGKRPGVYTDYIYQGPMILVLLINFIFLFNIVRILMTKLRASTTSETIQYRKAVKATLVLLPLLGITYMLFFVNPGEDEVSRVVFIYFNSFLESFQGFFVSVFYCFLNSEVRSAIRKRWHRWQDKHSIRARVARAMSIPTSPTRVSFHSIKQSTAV
Procedure: as §1, §2

T5 sequence (P31645 whole entry): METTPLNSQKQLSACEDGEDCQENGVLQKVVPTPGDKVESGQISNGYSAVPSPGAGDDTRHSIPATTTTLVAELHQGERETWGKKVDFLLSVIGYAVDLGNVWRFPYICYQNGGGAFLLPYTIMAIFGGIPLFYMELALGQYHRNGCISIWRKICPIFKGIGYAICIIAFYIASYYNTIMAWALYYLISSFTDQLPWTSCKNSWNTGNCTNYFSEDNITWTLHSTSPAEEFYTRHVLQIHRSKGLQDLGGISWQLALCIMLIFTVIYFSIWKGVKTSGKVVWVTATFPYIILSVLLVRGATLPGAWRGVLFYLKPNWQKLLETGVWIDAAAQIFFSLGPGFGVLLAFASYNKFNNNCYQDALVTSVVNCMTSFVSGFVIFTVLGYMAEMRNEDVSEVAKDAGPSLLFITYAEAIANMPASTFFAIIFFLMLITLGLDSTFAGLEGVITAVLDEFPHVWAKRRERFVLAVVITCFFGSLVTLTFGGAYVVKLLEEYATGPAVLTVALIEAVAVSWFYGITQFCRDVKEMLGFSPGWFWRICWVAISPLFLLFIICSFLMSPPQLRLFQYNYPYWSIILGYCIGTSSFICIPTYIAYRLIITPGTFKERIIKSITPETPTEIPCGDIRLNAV
T6 sequence (P35346 whole entry): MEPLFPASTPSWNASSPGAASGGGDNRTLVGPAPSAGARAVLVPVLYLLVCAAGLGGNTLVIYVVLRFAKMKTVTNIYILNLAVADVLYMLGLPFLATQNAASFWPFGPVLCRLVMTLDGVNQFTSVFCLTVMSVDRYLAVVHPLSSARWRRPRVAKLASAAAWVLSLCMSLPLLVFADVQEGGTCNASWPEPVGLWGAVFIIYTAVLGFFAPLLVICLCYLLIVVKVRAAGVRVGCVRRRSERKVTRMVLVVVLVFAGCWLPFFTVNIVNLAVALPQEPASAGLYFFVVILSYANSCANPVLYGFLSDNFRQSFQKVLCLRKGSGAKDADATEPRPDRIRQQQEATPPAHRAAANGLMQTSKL
T1 sequence (P37288 whole entry): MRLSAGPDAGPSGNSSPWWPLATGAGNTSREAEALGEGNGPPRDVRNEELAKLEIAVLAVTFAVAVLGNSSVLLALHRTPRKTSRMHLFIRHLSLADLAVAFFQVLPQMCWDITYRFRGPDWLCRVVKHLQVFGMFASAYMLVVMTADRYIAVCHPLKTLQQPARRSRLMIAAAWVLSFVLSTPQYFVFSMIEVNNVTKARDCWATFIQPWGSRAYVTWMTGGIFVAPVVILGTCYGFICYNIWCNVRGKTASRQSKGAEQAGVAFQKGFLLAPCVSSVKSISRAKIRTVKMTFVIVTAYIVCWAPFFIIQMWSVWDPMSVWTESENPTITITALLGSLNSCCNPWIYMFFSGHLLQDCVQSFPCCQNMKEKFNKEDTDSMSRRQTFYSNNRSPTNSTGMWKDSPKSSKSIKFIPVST
T2 sequence (P50554 28-500): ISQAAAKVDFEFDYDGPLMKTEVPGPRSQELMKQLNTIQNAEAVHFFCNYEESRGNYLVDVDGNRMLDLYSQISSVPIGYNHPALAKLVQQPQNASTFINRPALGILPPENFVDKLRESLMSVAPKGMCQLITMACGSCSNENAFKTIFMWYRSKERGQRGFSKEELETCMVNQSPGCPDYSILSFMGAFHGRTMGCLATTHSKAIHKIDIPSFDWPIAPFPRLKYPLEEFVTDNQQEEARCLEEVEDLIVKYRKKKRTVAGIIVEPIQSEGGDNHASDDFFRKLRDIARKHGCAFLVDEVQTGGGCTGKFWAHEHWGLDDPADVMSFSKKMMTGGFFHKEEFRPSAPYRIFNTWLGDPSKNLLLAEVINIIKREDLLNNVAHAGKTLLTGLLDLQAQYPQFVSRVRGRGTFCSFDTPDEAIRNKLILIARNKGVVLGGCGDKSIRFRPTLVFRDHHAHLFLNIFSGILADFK

CC1(C)C(=O)N(c2ccc(C#N)c(C(F)(F)F)c2)C(=S)N1c1ccc(C(=O)O)c(F)c1 [(MI), 4-(3-(4-cyano-3-(trifluoromethyl)phenyl)-5,5-dimethyl-4-oxo-2-thioxoimidazolidin-1-yl)-2-fluorobenzoic acid]
inhibition at 10 µM [1]: 2%
% Inhibition of Control Specific Binding @ 10 μM [2]: −16%
% Inhibition of Control Specific Binding @ 10 μM [3]: −6%
inhibition at 10 µM [4]: -7%
inhibition at 10 µM [5]: 69%
inhibition at 10 µM [6]: 10%
% Inhibition of Control Specific Binding @ 10 μM [7]: 28%
% Injected Radioactivity (%) [8]: 11.02%
% Recovered Radioactivity (%) [8]: 17.31%
Peak Area (mV) [8]: 589 mV
Peak Height (mV) [8]: 86 mV
% Inhibition of Control Specific Binding @ 10 μM [9]: −4%
% Inhibition of Control Specific Binding @ 10 μM [10]: −35%
inhibition at 10 µM [11]: 1%
inhibition at 10 µM [12]: -25%
inhibition at 10 µM [13]: -4%

CC1(C)C(=O)N(c2ccc(C#N)c(C(F)(F)F)c2)C(=S)N1c1ccc(C(N)=O)c(F)c1 [(MII), 4-(3-(4-Cyano-3-(trifluoromethyl)phenyl)-5,5-dimethyl-4-oxo-2-thioxoimidazolidin-1-yl)-2-fluorobenzamide]
inhibition at 10 µM [1]: 15%
% Inhibition of Control Specific Binding @ 10 μM [2]: 7%
% Inhibition of Control Specific Binding @ 10 μM [3]: 4%
inhibition at 10 µM [4]: -5%
inhibition at 10 µM [5]: 17%
inhibition at 10 µM [6]: 9%
% Inhibition of Control Specific Binding @ 10 μM [7]: 22%
% Injected Radioactivity (%) [8]: 5.38%
% Recovered Radioactivity (%) [8]: 8.45%
Peak Area (mV) [8]: 288 mV
Peak Height (mV) [8]: 43 mV
% Inhibition of Control Specific Binding @ 10 μM [9]: −21%
% Inhibition of Control Specific Binding @ 10 μM [10]: −37%
inhibition at 10 µM [11]: 16%
inhibition at 10 µM [12]: 16%
inhibition at 10 µM [13]: 1%

CC1(C)C(=O)N(c2ccc(C#N)c(C(F)(F)F)c2)C(=O)N1c1ccc(C(N)=O)c(F)c1 [(MIII), 4-(3-(4-cyano-3-(trifluoromethyl)phenyl)-5,5-dimethyl-2,4-dioxoimidazolidin-1-yl)-2-fluorobenzamide]
inhibition at 10 µM [1]: -1%
% Inhibition of Control Specific Binding @ 10 μM [2]: −35%
% Inhibition of Control Specific Binding @ 10 μM [3]: 1%
inhibition at 10 µM [4]: -2%
inhibition at 10 µM [5]: 11%
inhibition at 10 µM [6]: 2%
% Inhibition of Control Specific Binding @ 10 μM [7]: 20%
% Injected Radioactivity (%) [8]: 7.96%
% Recovered Radioactivity (%) [8]: 12.50%
Peak Area (mV) [8]: 426 mV
Peak Height (mV) [8]: 77 mV
% Inhibition of Control Specific Binding @ 10 μM [9]: −10%
% Inhibition of Control Specific Binding @ 10 μM [10]: −20%
inhibition at 10 µM [11]: 13%
inhibition at 10 µM [12]: 2%
inhibition at 10 µM [13]: -9%

CNC(=O)c1ccc(N2C(=O)N(c3ccc(C#N)c(C(F)(F)F)c3)C(=O)C2(C)C)cc1F [(MIV), 4-(3-(4-cyano-3-(trifluoromethyl)phenyl)-5,5-dimethyl-2,4-dioxoimidazolidin-1-yl)-2-fluoro-N-methylbenzamide]
inhibition at 10 µM [1]: -8%
% Inhibition of Control Specific Binding @ 10 μM [2]: −24%
% Inhibition of Control Specific Binding @ 10 μM [3]: −10%
inhibition at 10 µM [4]: -1%
inhibition at 10 µM [5]: 50%
inhibition at 10 µM [6]: 6%
% Inhibition of Control Specific Binding @ 10 μM [7]: 8%
% Injected Radioactivity (%) [8]: 8.45%
% Recovered Radioactivity (%) [8]: 13.27%
Peak Area (mV) [8]: 452 mV
Peak Height (mV) [8]: 63 mV
% Inhibition of Control Specific Binding @ 10 μM [9]: −8%
% Inhibition of Control Specific Binding @ 10 μM [10]: −29%
inhibition at 10 µM [11]: 18%
inhibition at 10 µM [12]: -7%
inhibition at 10 µM [13]: -23%
